Measured values published in publication PMC7695835, “Pharmacological characterisation of novel adenosine A3 receptor antagonists” (Scientific Reports, 2020).
Residue numbers refer to the chain shown, from its start. Read-outs that look alike come from different tables or passages of the source. Values belong to the molecule of their own block, whether it stands above or below them.

Experiments:
WT A3R [1] = target: T1, WT A3R (Homo sapiens, UniProt P0DMS8); experiment: IB-MECA stimulated cAMP inhibition at WT A3R Flp-In-CHO, with Schild analysis; assay type: cell-based; settings: IB-MECA only; difference between Emin and basal
T1 sequence (P0DMS8 1-318): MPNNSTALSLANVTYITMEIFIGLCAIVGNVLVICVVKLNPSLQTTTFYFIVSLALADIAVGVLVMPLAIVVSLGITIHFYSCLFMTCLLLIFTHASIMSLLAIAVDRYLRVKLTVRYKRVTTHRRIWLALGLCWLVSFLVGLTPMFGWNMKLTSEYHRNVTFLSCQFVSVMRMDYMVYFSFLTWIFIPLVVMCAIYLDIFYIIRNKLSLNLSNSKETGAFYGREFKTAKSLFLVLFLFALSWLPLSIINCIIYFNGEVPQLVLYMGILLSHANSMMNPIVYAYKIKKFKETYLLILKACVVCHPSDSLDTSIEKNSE

WT A3R [2] = target: T1, WT A3R; settings: + DMSO
L90A A3R = target: T2, L90A A3R (Homo sapiens, UniProt P0DMS8, L90A); settings: + DMSO
T2 sequence (P0DMS8 1-318 L90A): T1 sequence (P0DMS8 1-318) with L90A

V169A A3R = target: T3, V169A A3R (Homo sapiens, UniProt P0DMS8, V169A); settings: + DMSO
T3 sequence (P0DMS8 1-318 V169A): T1 sequence (P0DMS8 1-318) with V169A

M177A A3R = target: T4, M177A A3R (Homo sapiens, UniProt P0DMS8, M177A); settings: + DMSO
T4 sequence (P0DMS8 1-318 M177A): T1 sequence (P0DMS8 1-318) with M177A

I249A A3R = target: T5, I249A A3R (Homo sapiens, UniProt P0DMS8, I249A); settings: + DMSO
T5 sequence (P0DMS8 1-318 I249A): T1 sequence (P0DMS8 1-318) with I249A

L264A A3R = target: T6, L264A A3R (Homo sapiens, UniProt P0DMS8, L264A); settings: + DMSO
T6 sequence (P0DMS8 1-318 L264A): T1 sequence (P0DMS8 1-318) with L264A

A1R [3] = target: T7, A1R (Homo sapiens, UniProt P30542); experiment: Radioligand binding at A1R ([3H]CCPA, CHO cell membranes); settings: 1 nM [3H]CCPA; three independent experiments
T7 construct: expressed in transfected cells
T7 sequence (P30542 1-326): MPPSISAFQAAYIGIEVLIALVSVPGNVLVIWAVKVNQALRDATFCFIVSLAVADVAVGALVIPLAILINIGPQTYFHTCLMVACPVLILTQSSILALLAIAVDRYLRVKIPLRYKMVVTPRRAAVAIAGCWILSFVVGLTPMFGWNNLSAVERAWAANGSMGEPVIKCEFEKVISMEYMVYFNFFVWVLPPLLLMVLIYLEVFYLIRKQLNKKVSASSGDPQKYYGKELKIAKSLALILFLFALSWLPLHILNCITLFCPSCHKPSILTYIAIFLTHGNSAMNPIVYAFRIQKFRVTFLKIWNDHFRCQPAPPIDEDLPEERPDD
Procedure: (§1) All pharmacological methods followed the procedures as described in the literature. In brief, membranes for radioligand binding were prepared from CHO cells stably transfected with hAR subtypes in a two-step procedure. In the first step, cell fragments and nuclei were removed at 1000×g and then the crude membrane fraction was sedimented from the supernatant at 100,000×g. The membrane pellet was resuspended in the buffer used for the respective binding experiments and it was frozen in liquid nitrogen and stored at – 80 °C. […] Ki values from competition experiments were calculated using Prism (GraphPad Software, La Jolla, CA, USA) assuming competitive interaction with a single binding site.

A2AR [4] = target: T8, A2AR (Homo sapiens, UniProt P29274); experiment: Radioligand binding at A2AR ([3H]NECA, CHO cell membranes); settings: 10 nM [3H]NECA; three independent experiments
T8 construct: expressed in transfected cells; host or cells: CHO cells, membrane preparation
T8 sequence (P29274 whole entry): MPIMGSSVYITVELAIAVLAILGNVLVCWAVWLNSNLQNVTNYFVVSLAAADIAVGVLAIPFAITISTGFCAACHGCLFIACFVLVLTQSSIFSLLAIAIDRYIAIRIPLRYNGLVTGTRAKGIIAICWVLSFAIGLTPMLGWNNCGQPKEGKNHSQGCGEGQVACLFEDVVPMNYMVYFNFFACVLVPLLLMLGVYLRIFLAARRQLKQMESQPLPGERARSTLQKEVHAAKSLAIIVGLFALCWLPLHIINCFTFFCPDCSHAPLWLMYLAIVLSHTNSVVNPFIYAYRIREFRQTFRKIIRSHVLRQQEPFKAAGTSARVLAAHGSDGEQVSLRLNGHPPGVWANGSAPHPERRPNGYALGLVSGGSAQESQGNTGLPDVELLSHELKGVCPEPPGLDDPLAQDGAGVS
Procedure: as §1

rat A3R = target: T9, rat A3R (Rattus norvegicus, UniProt P28647); experiment: NanoBRET ligand-binding, Nluc-rat A3R HEK 293 cells, AV039 tracer
T9 sequence (P28647 1-320): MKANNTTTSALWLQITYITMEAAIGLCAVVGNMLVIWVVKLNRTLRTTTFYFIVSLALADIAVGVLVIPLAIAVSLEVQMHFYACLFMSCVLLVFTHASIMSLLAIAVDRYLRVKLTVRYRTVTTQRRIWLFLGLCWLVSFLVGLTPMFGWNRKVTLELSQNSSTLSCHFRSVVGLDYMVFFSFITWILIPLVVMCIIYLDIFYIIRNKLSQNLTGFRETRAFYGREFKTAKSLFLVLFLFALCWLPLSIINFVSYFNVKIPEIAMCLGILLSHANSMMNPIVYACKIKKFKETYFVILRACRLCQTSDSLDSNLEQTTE

A3R [5] = target: T10, A3R (Homo sapiens, UniProt P0DMS8); experiment: NECA stimulated cAMP inhibition in A3R Flp-In CHO cells; assay type: cell-based; settings: NECA only; lower plateau
T10 sequence (P0DMS8 1-318): T1 sequence (P0DMS8 1-318)

A1R [6] = target: T7, A1R; experiment: NECA stimulated cAMP inhibition in CHO-K1 cells expressing A1R; assay type: cell-based; settings: NECA only
A3R [7] = target: T10, A3R; settings: for cAMP accumulation Mean difference between 'NECA' and compound: 10 μM forskolin + NECA IC80 + 1 μM compound
A3R [8] = target: T10, A3R; experiment: HEMADO induced cAMP inhibition at the A3R; assay type: cell-based; settings: HEMADO only
in vitro = settings: human, plasma
physchem = settings: PBS, pH 7.4
A3R [9] = target: T10, A3R; experiment: Radioligand binding at A3R ([3H]HEMADO, CHO cell membranes); settings: 1 nM [3H]HEMADO; three independent experiments
A1R [10] = target: T7, A1R; design: method as in Lagarias et al.[19]; settings: 1 nM [3H]CCPA; ref Lagarias et al.[19]; read-out: Radioligand binding Ki A1R; cited from earlier work
A2AR [11] = target: T8, A2AR; design: method as in Lagarias et al.[19]; settings: 10 nM [3H]NECA; ref Lagarias et al.[19]; read-out: Radioligand binding Ki A2AR; cited from earlier work
Human plasma stability = settings: 1 μM compound
[12] = Half-life in PBS (pH 7.4); settings: PBS pH 7.4, 1 μM compound
[13] = 10 μM forskolin + NECA IC80 (3.16 nM) + 1 μM compound, mean ± SEM, n = 3

Span (WT A3R [1]): 116.1 ± 3.5
Basal (WT A3R [2]): 60.1 ± 0.9 %100 μM forskolin
Emin (WT A3R [2]): 35.0 ± 1.6 %100 μM forskolin
Span (WT A3R [2]): 25.1 ± 2.0
Basal (L90A A3R): 73.2 ± 2.7 %100 μM forskolin
Emin (L90A A3R): 43.3 ± 3.2 %100 μM forskolin
Span (L90A A3R): 29.9 ± 1.8
Basal (V169A A3R): 55.3 ± 2.4 %100 μM forskolin
Emin (V169A A3R): 30.9 ± 1.7 %100 μM forskolin
Basal (M177A A3R): 70.2 ± 2.0 %100 μM forskolin
Emin (M177A A3R): 38.6 ± 2.7 %100 μM forskolin
Span (M177A A3R): 31.6 ± 2.0
Basal (I249A A3R): 62.6 ± 2.7 %100 μM forskolin
Emin (I249A A3R): 34.9 ± 2.2 %100 μM forskolin
Span (I249A A3R): 27.7 ± 1.3
Basal (L264A A3R): 72.0 ± 2.3 %100 μM forskolin
Emin (L264A A3R): 41.1 ± 2.2 %100 μM forskolin
Span (L264A A3R): 30.9 ± 2.2
Structure (SMILES): CNC(=O)[C@H]1O[C@@H](n2cnc3c(NCc4cccc(I)c4)ncnc32)[C@H](O)[C@@H]1O [IB-MECA, (2S,3S,4R,5R)-3,4-dihydroxy-5-[6-[(3-iodophenyl)methylamino]purin-9-yl]-N-methyloxolane-2-carboxamide]

Ki (A1R [3]): > 100 µM
Ki (A2AR [4]): > 100 µM
binding at rat A3R (rat A3R; no binding detected below the concentration of 10 μM): very weak binding
pKi (rat A3R; rat A3R, 100 nM AV039, BRET ratio at 5 minutes, Cheng-Prusoff): 4.05 ± 0.10
Structure (SMILES): Cc1onc(-c2ccccc2Cl)c1C(=O)O/N=C(\N)c1ccccn1 [Compound K32]

Structure (SMILES): CCNC(=O)[C@H]1O[C@@H](n2cnc3c(N)ncnc32)[C@H](O)[C@@H]1O [NECA]
Emin (A3R [5]): -5.02 ±2.4 % 10 µM forskolin response, relative to NECA
Span (A1R [6]): 111.4 ±4.0
Emin (A1R [6]; lower plateau): -5.1 ±1.0 % forskolin response
Basal (A1R [6]; upper plateau): 107.5 ±3.4
cAMP accumulation Mean (A3R [7]; 10 μM forskolin + NECA IC80 (3.16 nM), no test compound): 60.32 ± 3.41 %10 μM forskolin response

Span (A3R [8]): 107.3 ±4.7
IC50 (A3R [8]; 10 µM forskolin, n = 3, read-out: pIC50 of HEMADO (converted)): 28.8 pM
Emin (A3R [8]; lower plateau): -3.48 ±2.7 % 10 µM forskolin response
Basal (A3R [8]; upper plateau): 103.8 ±4.1
Structure (SMILES): CCCCC#Cc1nc(NC)c2ncn([C@@H]3O[C@H](CO)[C@@H](O)[C@H]3O)c2n1 [HEMADO, (2R,3R,4S,5R)-2-(2-hex-1-ynyl-6-methylaminopurin-9-yl)-5-(hydroxymethyl)oxolane-3,4-diol]

half-life at 1 μM (in vitro): 0.917 h
half-life at 1 μM (physchem): > 4 h
Structure (SMILES): CC(C)[N+](C)(CCOC(=O)C1c2ccccc2Oc2ccccc21)C(C)C [propantheline, reference compound]

Ki (A3R [9]): > 30 µM
Ki (A1R [3]): > 100 µM
Ki (A2AR [4]): > 100 µM
cAMP accumulation Mean (A3R [7]; [13]): 71.97 ±4.74 %10 μM forskolin response
cAMP accumulation Mean difference between 'NECA' and compound (A3R [7]): -11.65 %10 μM forskolin response
Structure (SMILES): N/C(=N\OC(=O)c1ccccc1-c1ccccc1)c1cccnc1 [Compound K33]

Ki (A3R [9]): > 100 µM
Ki (A1R [3]): > 100 µM
Ki (A2AR [4]): > 100 µM
cAMP accumulation Mean (A3R [7]; [13]): 61.96 ±1.51 %10 μM forskolin response
cAMP accumulation Mean difference between 'NECA' and compound (A3R [7]): -1.64 %10 μM forskolin response
Structure (SMILES): N/C(=N\OC(=O)c1ccc(-c2ccccc2)cc1)c1ccc(Br)cc1 [Compound K36]

half-life at 1 μM (in vitro): > 2 h
half-life at 1 μM (physchem): > 4 h
percentage remaining after 120 min (Human plasma stability): 90%
percentage remaining at 240 min [12]: 87%
Structure (SMILES): Cc1nc(C(=N)NOC(=O)c2c(-c3c(Cl)cccc3Cl)noc2C)cs1 [Compound K18, O4-{[3-(2,6-dichlorophenyl)-5-methylisoxazol-4-yl]carbonyl}-2-methyl-1,3-thiazole-4-carbohydroximamide]
Ki (A1R [10]): > 100 µM
Ki (A2AR [11]): > 100 µM
